According to patent US8653046B2, “Controlling transgene expression across the skin” (ETH Zurich, priority 2009, dated 2014):

How the values were obtained:
TtgK (TtgR-KRAB) = test: PEACE-ON: SEAP expression of CHO-K1 co-transfected with pMG28 (PSV40-TtgK-pA) and pMG27 (PTtgRON-SEAP-pA); type: cell-based; conditions: phloretin 0-50 μM, 48 h
Protocol: (C) SEAP expression profiles of CHO-K1 transiently transfected with pMG28 (PSV40-TtgK-pA) and pMG27 (PTtgRON-SEAP-pA) and cultivated for 48 h in the presence of different phloretin concentrations (0-50 μM).
By fusing TtgR to the human Kruppel-associated box-protein (KRAB) (Moosmann P., Georgiev O., Thiesen H. J., Hagmann M., Schaffner W., […], Biol Chem 378(7):669-677) a synthetic mammalian transrepressor (TtgK) is created, which is able to bind and inhibit transcription from a promoter (PTtgRON) harboring eight OTtgR-elements located 3′ of a constitutive simian virus 40 promoter (PSV40), in a phloretin-responsive manner (FIGS. 10A and B). Co-transfection of the constitutive TtgK expression vector pMG28 (PSV40-TtgK-pA) and pMG27 (PTtgRON-SEAP-pA) encoding a TtgK-specific PTtgRON-driven SEAP expression unit, results in low-level, basal SEAP expression (2.3±0.26 U/L). […]

[1] = tested on: macrolide-responsive control system (ET1, E-VP16; PETR3-SAMY-pA); test: Compatibility test: macrolide-responsive (EOFF) SAMY production in CHO-PEACE8 (pWW35, pBP100); type: cell-based; conditions: CHO-PEACE8 transiently transfected with macrolide-responsive control system; Phl 50 μM, EM 2 μg/mL; 48 h; 100 = no inducer
Source text: To evaluate the functional compatibility of PEACE with the established tetracycline— [TETOFF; Gossen M., Bujard H., 1992, Proc Natl Acad Sci USA 89(12):5547-5551] and macrolide— [EOFF; Weber W., et al., 2002, Nat Biotechnol 20(9):901-907] responsive expression circuits CHO-PEACE8 is transiently transfected, transgenic for phloretin-responsive SEAP expression, with either the TETOFF-(pSAM200, PSV40-tTA-pA; pBP99, PhCMV*-1-SAMY-pA) or the EOFF-(PWW35, PSV40-ET1-pA; pBP100, PETR3-SAMY-pA) system set to control the Bacillus stearothermophilus-derived secreted α-amylase (SAMY) in response to tetracycline and erythromycin, respectively. SEAP and SAMY expression are scored 48 h after cultivation of the transfected populations in the presence (50 μM; 2 μg/mL) or absence of the inducer molecules (phloretin, tetracycline, erythromycin).

O=C(CCc1ccc(O)cc1)c1c(O)cc(O)cc1O [phloretin, 3-[4-hydroxyphenyl]-1-[2,4,6-trihydroxyphenyl]-1-propanone]
SEAP expression dose response (PEACE-ON) (TtgK (TtgR-KRAB)): dose-dependent induction of SEAP expression | Relative SAMY Production (%) [1]: 100.6 ± 7.0%
